The test system of data set [1] is monocyte chemoattractant protein-1 (MCP-1). The experiment in a line: MCP-1 (ccl2) mRNA expression (qPCR) after LPS stimulation of PMA-differentiated THP-1 macrophages. The class given is cell-based, Human. Particulars: 150 μM compound, LPS 100 ng/ml for 1 hour, qPCR delta delta Ct (FIG. 1). On the procedure: Human THP-1 monocytes were seeded at 5×10^5-9×10^5 in a 6-well plate. Phorbol myristate acetate (5 ng/ml, PMA) was added for 48-72 hours, to induce differentiation from monocytes to macrophages. Cells were then starved for 3 hours.
Cells were harvested in RNALater (Qiagen), and prepared for quantitative polymerase chain reaction (qPCR). Total RNA was isolated using Trizol Reagent (Life Technologies) based on the manufacturer's protocol and its quantity and quality checked with a Nanodrop 2000 spectrophotometer (Thermo Scientific, USA). QuantiTect Reverse Transcription Kit with separate genomic DNA removal step (Qiagen) was used based on the manufacturer's protocol. Briefly, 0.5 μg total RNA was used for each sample during reverse transcription and the resulting cDNA solution was further diluted to 10 ng/ul with nuclease free water and stored at-20 C.
PowerUp SYBR Green Master Mix (ThermoFisher Scientific) was used for quantitative PCR based on manufacturer's protocol. […]
Relative quantification method based on delta delta Ct was used for comparison of gene expression levels in various arms. Briefly, relative quantification and statistical analysis were performed using Relative Expression Software Tool-Multiple Condition Solver (REST-MCS, V2) based on the protocol by M. W. Pfaffl & G. W. Horgan (2006), which is incorporated by reference herein in its entirety.

Data set [2] can be described thus: Acid hydrolysis of bindarit conjugates in 12M HCl, read by NMR. The class given is physicochemical. The following applies: for hydrolysis in 12M HCl: 12M HCl at 40° C., overnight; for conjugate hydrolized (acid hydrolysis): 12M HCl, 40° C., stirred 16 hours, NMR in D2O. On the procedure:
Acid hydrolysis: 4 mg bindarit-taurine conjugate was added to 4 mL 12M HCl. The reaction mixture was heated to 40° C. and stirred for 16 hours, followed by concentration of the reaction mixture. About 70% (mol %) of the bindarit-taurine conjugate was hydrolized as identified by NMR in D2O (FIG. 10).
3 mg bindarit-carnosine conjugate was added to 3 mL 12M HCl. The reaction mixture was heated to 40° C. and stirred for 16 hours, followed by concentration of the reaction mixture. About 50% (mol %) of the bindarit-carnosine conjugate was hydrolized as identified by NMR in D2O (FIG. 12).

`CCOC(=O)C(C)(C)OCc1nn(Cc2ccccc2)c2ccccc12` [bindarit ethyl ester, ethyl 2-((1-benzl-1H-indazol-3-yl)methoxy)-2-methylpropanoate]: the “ability to reduce MCP-1 mRNA” value in data set [1] is “equally as efficacious as bindarit”. Consider `CC(C)(OCc1nn(Cc2ccccc2)c2ccccc12)C(=O)NCCC(=O)N[C@@H](Cc1cnc[nH]1)C(=O)O` [bindarit-carnosine conjugate], for which, in data set [2], the “hydrolysis in 12M HCl” value is reported as 50% and the “conjugate hydrolized (acid hydrolysis)” value was “About 50 % (mol %)”.

Turning to `CC(C)(OCc1nn(Cc2ccccc2)c2ccccc12)C(=O)NCCS(=O)(=O)O` [bindarit-taurine conjugate], in data set [2], the “hydrolysis in 12M HCl” value was 70% and the “conjugate hydrolized (acid hydrolysis)” value is reported as “About 70 % (mol %)”.

The record behind these values is US20260226011A1, “COMPOSITIONS AND METHODS FOR TREATING OCULAR DISEASES OR DISORDERS” (Translatum Medicus Inc., priority 2023, published 2026).
